# Reference: patent publication US20120046331A1, “Antifungal Agents and Uses Thereof” (priority 2010, published 2012)
# Values joined by “and” are separate entries in the source; they are usually repeats but may differ in a detail not shown here. Identical values can stand only once. Like-named read-outs stand apart in the source and are kept apart here. Marks after values point to notes of the source that are not given here.
# Legend:
# [1] = system: panel of clinical isolates of 5 common dermatophytic fungi; assay: Checkerboard combination testing, whole panel (Example 1); assay type: cell-based
# Experimental: (§1) This example describes the in vitro activity of combinations of compounds according to the present invention and antifungal agents against a collection of dermatophytic fungal pathogens. Antifungal susceptibility testing was adapted from the CLSI M38-A broth microdilution method for dermatophytes (NCCLS-M38-A2 2008). Combination testing was performed by checkerboard method (with compound 8 in combination with fluconazole, itraconazole or terbinafine). A total of 30 isolates of 5 different fungal species were tested in the combination test: 6 isolates each of Trichophyton tonsurans, Trichophyton rubrum, Epidermophyton floccosum, Trichophyton mentagrophytes and Microsporum canis. Clinical isolates were obtained by the Laboratory of Dr. M. Ghannoum at Case Western University.
# (§2) Synergy was assessed using the fractional inhibitory concentration (FIC), an interaction coefficient, with the following definitions: […]
# M. canis [2] = assay: Checkerboard combination testing of compound 8 with antifungals, FIC (Example 1); assay type: cell-based, Microsporum canis
# Experimental: as §1, §2
# T. tonsurans [3] = assay: as above; assay type: cell-based, Trichophyton tonsurans; settings: for Additivity # isolates / Additivity isolates (%): 0.5≦FIC≦1.0; for No Interaction # isolates: 1.0<FIC≦4.0; for Synergy # isolates / Synergy isolates (%): FIC<0.5
# Experimental: as §1
# Synergy was assessed using the fractional inhibitory concentration (FIC), an interaction coefficient, with the following definitions:
# The fold reduction of the itraconazole minimum inhibitory concentration (MIC) was also evaluated.
# T. rubrum [4] = assay: MIC testing, modified CLSI M38-A2 for dermatophytes (Example 2); assay type: cell-based, Trichophyton rubrum; settings: for MIC50: lowest concentration to inhibit 50% of the strains tested, n = 20
# [5] = system: broad panel of dermatophytic clinical isolates; assay: Single agent MIC, whole panel (Example 1); assay type: cell-based; settings: range over all species and clinical isolates tested
# Text: (§3) A minimum inhibitory concentration (MICx) of a compound such as a HDAC inhibitor or an antifungal agent (or both) is the concentration that reduces growth of a fungus by X %, compared to the growth of the fungus in the absence of the compound.
# as §1
# T. tonsurans [6] = assay: MIC testing, modified CLSI M38-A2 for dermatophytes (Example 2); assay type: cell-based
# Experimental: (§4) MIC testing was performed according to the modification of the CLSI M38-A2 standard for dermatophytes developed at the Center (CLSI. Reference Method for Broth Dilution Antifungal Susceptibility Testing of Filamentous Fungi; Approved Standard-Second Edition. CLSI document M38-A2 [ISBN 1-56238-668-9]. CLSI, 940 West Valley Road, Suite 1400, Wayne, Pa. 19087-1898 USA, 2008; Ghannoum M A, et al. Intra- and Interlaboratory Study of a Method for Testing the Antifungal Susceptibilities of Dermatophytes. 2004 J Clin Microbiol 42:(7): 2977-2979). Compound 8 and fluconazole were tested in combination using a checkerboard microdilution method. The interaction between Compound 8 and fluconazole was determined by FIC Index, or Fractional Inhibitory Concentration Index, which assigns a numerical value to the interaction of the two antifungals.
# T. mentagrophytes [7] = assay: as above; assay type: cell-based
# Experimental: as §4
# T. tonsurans [8] = assay: Checkerboard microdilution Compound 8 + fluconazole, FIC Index (Example 2); assay type: cell-based; settings: Compound 8 in combination with fluconazole, one value per strain (MRL #)
# Experimental: as §4
# T. mentagrophytes [9] = assay: as above; assay type: cell-based; settings: Compound 8 in combination with fluconazole, one value per strain (MRL #)
# Experimental: as §4
# T. rubrum [10] = assay: Checkerboard combination testing of compound 8 with antifungals, FIC (Example 1); assay type: cell-based, Trichophyton rubrum; settings: n=6 isolates; for Additivity # isolates / Additivity isolates (%): 0.5≦FIC≦1.0; for No Interaction # isolates: 1.0<FIC≦4.0; for Synergy # isolates / Synergy isolates (%): FIC<0.5
# Experimental: as §1, §2
# M. canis [11] = assay: Single agent MIC, broth microdilution adapted from CLSI M38-A (Example 1); assay type: cell-based; settings: Microsporum canis, range over clinical isolates, N=7, read-out: Cpd 8 MIC
# Text: as §3, §1
# T. tonsurans [12] = assay: as above; assay type: cell-based; settings: Trichophyton tonsurans, range over clinical isolates, N=8, read-out: Cpd 8 MIC
# Text: as §3, §1
# T. mentagrophytes [13] = assay: as above; assay type: cell-based; settings: Trichophyton mentagrophytes, range over clinical isolates, N=10, read-out: Cpd 8 MIC
# Text: as §3, §1
# E. floccosum = assay: as above; assay type: cell-based; settings: Epidermophyton floccosum, range over clinical isolates, N=9, read-out: Cpd 8 MIC
# Text: as §3, §1
# T. rubrum [14] = assay: as above; assay type: cell-based; settings: Trichophyton rubrum, range over clinical isolates, N=10, read-out: Cpd 8 MIC
# Text: as §3, §1
# [15] = system: clinical isolates of Zygomycetes and molds; assay: In vitro synergy with azoles; assay type: cell-based; settings: majority of clinical isolates
# [16] = system: T. rubrum, T. mentagrophytes and T. tonsurans strains; assay: Checkerboard microdilution Compound 8 + fluconazole, all strains (Example 2); assay type: cell-based; settings: Compound 8 in combination with fluconazole
# Experimental: as §4
# [17] = Compound 8 in combination with fluconazole, 0.5≦FIC≦1.0, n=6 isolates
# [18] = Compound 8 in combination with fluconazole, 1.0<FIC≦4.0, n=6 isolates
# [19] = Compound 8 in combination with fluconazole, FIC<0.5, n=6 isolates
# [20] = Compound 8 in combination with fluconazole, n=6 isolates
# [21] = Compound 8 in combination with itraconazole, N=5 isolates
# [22] = Trichophyton tonsurans, n = 5 strains
# [23] = Trichophyton mentagrophytes, n = 5 strains
# [24] = Compound 8 in combination with fluconazole
# [25] = Compound 8 in combination with itraconazole
smiles,measurement,setting,value
O=C(Cc1ccc(CCCCc2ccccc2)cc1)NO [Compound 8],"Synergy, % of the isolate combinations tested","[1]; Compound 8 with fluconazole, 30 isolate combinations",33%
same,"Synergy, number of isolates","[1]; Compound 8 with fluconazole, of 30 isolate combinations tested",10
same,"Synergy, % of the isolate combinations tested","[1]; Compound 8 with itraconazole, 28 isolate combinations",54%
same,"Synergy, number of isolates","[1]; Compound 8 with itraconazole, of 28 isolate combinations tested",15
same,Antagonism,[1]; any of the Compound 8-azole combinations or clinical isolates,Antagonism was not observed
same,Additivity # isolates,M. canis [2]; [17],4
same,Additivity isolates (%),M. canis [2]; [17],(67%)
same,No Interaction # isolates,M. canis [2]; [18],1
same,No Interaction isolates (%),M. canis [2]; [18],(17%)
same,Synergy # isolates,M. canis [2]; [19],1
same,Synergy isolates (%),M. canis [2]; [19],(17%)
same,No Interaction # isolates,"M. canis [2]; Compound 8 in combination with itraconazole, 1.0<FIC≦4.0, N=5 isolates",4
same,Additivity # isolates,T. tonsurans [3]; [20],1
same,Additivity isolates (%),T. tonsurans [3]; [20],(17%)
same,No Interaction # isolates,T. tonsurans [3]; [20],0
same,Synergy # isolates,T. tonsurans [3]; [20],5
same,Synergy isolates (%),T. tonsurans [3]; [20],(83%)
same,Additivity # isolates,T. tonsurans [3]; [21],4
same,Additivity isolates (%),T. tonsurans [3]; [21],(80%)*
same,No Interaction # isolates,T. tonsurans [3]; [21],0
same,Synergy # isolates,T. tonsurans [3]; [21],1
same,Synergy isolates (%),T. tonsurans [3]; [21],(20%)*
same,Fold Reduction of Itraconazole MIC by Cpd 8,T. tonsurans [3]; one value per clinical isolate (Strain # 1-6),2x and 4x
same,MIC50,"T. rubrum [4]; Trichophyton rubrum, read-out: MIC50",1 µg/mL
same,MIC90,"T. rubrum [4]; Trichophyton rubrum, n = 20 strains",4 µg/mL
same,MIC50,T. rubrum [4],1 µg/mL
same,MIC Range,T. rubrum [4]; n = 20 strains,0.5 to 4.0 µg/mL
same,Compound 8 MIC compared with the corresponding terbinafine MIC,T. rubrum [4]; nine strains with a terbinafine MIC≧4.0 μg/ml,lower than the corresponding terbinafine MIC for eight of nine strains
same,MIC,[5],0.02 to 2 µg/mL
same,MIC,"T. tonsurans [6]; Trichophyton tonsurans, drug alone, one value per strain (MRL # in c0), read-out: Individual MIC",0.12 µg/mL
same,MIC50,T. tonsurans [6]; [22],0.06 µg/mL
same,MIC90,T. tonsurans [6]; [22],0.06 µg/mL
same,Antifungal activity as compared with fluconazole,T. tonsurans [6]; all strains tested,more potent antifungal activity as compared with fluconazole
same,MIC Range,T. tonsurans [6]; n = 5 strains,0.06 to 0.12 µg/mL
same,MIC,"T. mentagrophytes [7]; Trichophyton mentagrophytes, drug alone, one value per strain (MRL # in c0), read-out: Individual MIC",1 µg/mL
same,MIC50,T. mentagrophytes [7]; [23],1 µg/mL
same,MIC90,T. mentagrophytes [7]; [23],1 µg/mL
same,Antifungal activity as compared with fluconazole,T. mentagrophytes [7]; all strains tested,more potent antifungal activity as compared with fluconazole
same,MIC Range,T. mentagrophytes [7]; n = 5 strains,1.0 µg/mL
same,Interpretation from ODDS,T. tonsurans [8]; strain MRL 10152,Additive
same,Interpretation from ODDS,T. tonsurans [8]; strain MRL 10327,No interaction
same,Interpretation from ODDS,T. tonsurans [8]; strain MRL 10328,Synergistic
same,Interpretation from ODDS,T. mentagrophytes [9]; strain MRL 11256,Synergistic
same,Interpretation from ODDS,T. mentagrophytes [9]; strain MRL 12511,Additive
same,Interpretation from ODDS,T. mentagrophytes [9]; strain MRL 12680,No interaction
same,Additivity # isolates,T. rubrum [10]; [24],4
same,Additivity isolates (%),T. rubrum [10]; [24],(67%)
same,No Interaction # isolates,T. rubrum [10]; [24],0
same,Synergy # isolates,T. rubrum [10]; [24],2
same,Synergy isolates (%),T. rubrum [10]; [24],(33%)
same,Additivity # isolates,T. rubrum [10]; [25],2
same,Additivity isolates (%),T. rubrum [10]; [25],(33%)
same,No Interaction # isolates,T. rubrum [10]; [25],0
same,Synergy # isolates,T. rubrum [10]; [25],4
same,Synergy isolates (%),T. rubrum [10]; [25],(67%)
same,MIC,M. canis [11],0.12 to 2 µg/mL
same,MIC,T. tonsurans [12],0.02 to 0.25 µg/mL
same,MIC,T. mentagrophytes [13],0.12 to 2 µg/mL
same,MIC,E. floccosum,0.5 to 1 µg/mL
same,MIC,T. rubrum [14],0.06 to 0.25 µg/mL
same,In vitro interaction with azoles,[15],synergy
same,Antagonism,[16],No antagonism was demonstrated
same,"Synergism, % of the strains",[16],23%
